Earlier results on ten molecules are cited in US20230265432A1, “METHODS AND COMPOSITIONS FOR TREATING ACUTE MYELOID LEUKEMIA” (Sanford Burnham Prebys Medical Discovery Institute, priority 2021, published 2023).

One data set addresses EZH2 (Y641F) (Homo sapiens, UniProt Q15910, Y641F). The following applies: cited from earlier work.
The target of another data set is EZH2 (Homo sapiens, UniProt Q15910). The following applies: cited from earlier work.
Another data set has as its target BRD2 (Homo sapiens, UniProt P25440). The following applies: cited from earlier work.
Another data set addresses BRD3 (Homo sapiens, UniProt Q15059). Particulars: cited from earlier work.
In data set [1] the test system is p53K370 monomethylation in cells. The following applies: cited from earlier work.
A further data set has as its target MOF (Homo sapiens, UniProt Q9H7Z6). The following applies: cited from earlier work.
The target in data set [2] is jumonji histone demethylase (JMJD2). Particulars: cited from earlier work.
Another data set deals with PARP. The following applies: cited from earlier work.
The target in a further data set is DNA methyltransferase. The following applies: cited from earlier work.
The test system of data set [3] is histone methylation in cells. Particulars: cited from earlier work.
Another data set has as its target T1, JAK2 (Homo sapiens, UniProt O60674, V617F).
T1 construct: endogenous in cells; host or cells: HEL cells
The following applies: in HEL cells; cited from earlier work.

In a further data set the target is T2, STAT3 (Homo sapiens, UniProt P40763).
T2 construct: endogenous in cells; host or cells: HEL cells
Particulars: in HEL cells; cited from earlier work.

The target in the next data set is EGFR (Homo sapiens, UniProt P00533). Particulars: cited from earlier work.

Sequence of MOF (Q9H7Z6 whole entry, species assumed): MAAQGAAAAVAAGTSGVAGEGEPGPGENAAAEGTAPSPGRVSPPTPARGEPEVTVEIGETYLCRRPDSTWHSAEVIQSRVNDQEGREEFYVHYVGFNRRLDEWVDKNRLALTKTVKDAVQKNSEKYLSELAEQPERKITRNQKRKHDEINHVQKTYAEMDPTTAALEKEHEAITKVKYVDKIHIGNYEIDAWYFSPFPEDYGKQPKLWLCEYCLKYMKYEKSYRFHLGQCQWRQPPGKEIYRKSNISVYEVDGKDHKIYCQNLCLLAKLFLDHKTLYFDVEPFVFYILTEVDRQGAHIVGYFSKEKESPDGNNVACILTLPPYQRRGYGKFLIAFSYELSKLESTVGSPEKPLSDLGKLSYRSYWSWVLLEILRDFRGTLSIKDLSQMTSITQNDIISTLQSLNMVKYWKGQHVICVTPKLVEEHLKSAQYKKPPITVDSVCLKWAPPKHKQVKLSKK
Sequence of EZH2 (Q15910 whole entry, species assumed): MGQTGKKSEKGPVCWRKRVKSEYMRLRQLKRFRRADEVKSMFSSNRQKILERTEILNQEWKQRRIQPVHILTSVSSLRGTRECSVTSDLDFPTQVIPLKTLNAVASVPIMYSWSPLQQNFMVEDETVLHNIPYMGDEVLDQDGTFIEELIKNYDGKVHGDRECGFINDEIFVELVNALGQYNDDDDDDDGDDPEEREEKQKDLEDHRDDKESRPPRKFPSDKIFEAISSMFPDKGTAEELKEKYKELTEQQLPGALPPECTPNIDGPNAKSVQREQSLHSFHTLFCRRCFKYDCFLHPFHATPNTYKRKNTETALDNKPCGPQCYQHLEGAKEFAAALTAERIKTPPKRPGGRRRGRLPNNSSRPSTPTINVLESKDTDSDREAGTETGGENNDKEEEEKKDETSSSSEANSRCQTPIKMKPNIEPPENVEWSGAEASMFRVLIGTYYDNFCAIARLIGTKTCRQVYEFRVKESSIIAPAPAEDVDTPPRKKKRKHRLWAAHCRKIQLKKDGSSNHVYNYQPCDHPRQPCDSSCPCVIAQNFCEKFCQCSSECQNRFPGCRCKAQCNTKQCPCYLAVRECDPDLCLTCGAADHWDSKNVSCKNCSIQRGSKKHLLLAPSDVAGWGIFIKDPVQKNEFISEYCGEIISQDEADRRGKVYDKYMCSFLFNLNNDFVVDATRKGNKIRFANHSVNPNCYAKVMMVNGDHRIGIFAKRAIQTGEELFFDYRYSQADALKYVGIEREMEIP
Sequence of EZH2 (Y641F) (Q15910 whole entry Y641F, species assumed): as the sequence (Q15910 whole entry, species assumed) above, with Y641F counted along it
Sequence of EZH2 (Y641F) (O75530 whole entry partner, species assumed): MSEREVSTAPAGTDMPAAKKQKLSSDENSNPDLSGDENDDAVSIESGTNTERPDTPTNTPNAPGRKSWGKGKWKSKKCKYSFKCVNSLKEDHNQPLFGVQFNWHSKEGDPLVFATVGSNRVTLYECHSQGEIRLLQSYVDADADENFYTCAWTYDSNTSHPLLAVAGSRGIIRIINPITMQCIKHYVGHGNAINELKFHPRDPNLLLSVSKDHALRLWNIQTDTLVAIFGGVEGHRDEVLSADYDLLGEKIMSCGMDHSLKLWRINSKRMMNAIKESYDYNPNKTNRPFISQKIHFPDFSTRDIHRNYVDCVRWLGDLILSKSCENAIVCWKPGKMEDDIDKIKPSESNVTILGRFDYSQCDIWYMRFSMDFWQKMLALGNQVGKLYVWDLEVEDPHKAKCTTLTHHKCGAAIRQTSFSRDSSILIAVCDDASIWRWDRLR
Sequence of EZH2 (Y641F) (Q15022 whole entry partner, species assumed): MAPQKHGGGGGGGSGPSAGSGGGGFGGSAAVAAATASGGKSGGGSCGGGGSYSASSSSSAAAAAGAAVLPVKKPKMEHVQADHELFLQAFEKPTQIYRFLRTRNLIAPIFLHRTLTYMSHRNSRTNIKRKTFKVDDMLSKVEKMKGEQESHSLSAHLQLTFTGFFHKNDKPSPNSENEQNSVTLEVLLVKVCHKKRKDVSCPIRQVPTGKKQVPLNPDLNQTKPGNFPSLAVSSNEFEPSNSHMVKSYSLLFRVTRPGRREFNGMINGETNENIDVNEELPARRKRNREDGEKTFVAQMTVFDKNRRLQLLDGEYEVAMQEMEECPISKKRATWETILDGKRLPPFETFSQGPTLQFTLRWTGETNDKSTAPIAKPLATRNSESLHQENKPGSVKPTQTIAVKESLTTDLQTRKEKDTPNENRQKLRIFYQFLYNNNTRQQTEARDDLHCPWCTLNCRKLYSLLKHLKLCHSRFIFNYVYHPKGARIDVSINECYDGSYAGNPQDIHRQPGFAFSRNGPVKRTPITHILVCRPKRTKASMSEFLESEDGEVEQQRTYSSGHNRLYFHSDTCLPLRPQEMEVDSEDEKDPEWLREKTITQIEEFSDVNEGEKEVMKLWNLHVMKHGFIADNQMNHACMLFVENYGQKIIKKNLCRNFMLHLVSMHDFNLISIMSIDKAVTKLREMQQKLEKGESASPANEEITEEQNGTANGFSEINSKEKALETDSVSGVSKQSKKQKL
Sequence of EZH2 (Y641F) (Q09028 whole entry partner, species assumed): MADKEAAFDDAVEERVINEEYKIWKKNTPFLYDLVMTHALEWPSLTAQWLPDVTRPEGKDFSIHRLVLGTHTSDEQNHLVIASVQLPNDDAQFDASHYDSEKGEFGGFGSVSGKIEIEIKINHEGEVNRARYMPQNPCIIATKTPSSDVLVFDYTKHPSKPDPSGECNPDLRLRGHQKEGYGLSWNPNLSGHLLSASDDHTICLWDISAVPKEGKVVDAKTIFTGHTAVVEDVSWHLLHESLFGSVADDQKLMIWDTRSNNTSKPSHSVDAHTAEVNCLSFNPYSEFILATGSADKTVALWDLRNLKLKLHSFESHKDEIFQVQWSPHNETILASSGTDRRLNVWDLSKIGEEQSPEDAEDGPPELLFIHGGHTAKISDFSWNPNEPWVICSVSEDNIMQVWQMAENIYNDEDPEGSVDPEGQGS
Sequence of BRD2 (P25440 whole entry, species assumed): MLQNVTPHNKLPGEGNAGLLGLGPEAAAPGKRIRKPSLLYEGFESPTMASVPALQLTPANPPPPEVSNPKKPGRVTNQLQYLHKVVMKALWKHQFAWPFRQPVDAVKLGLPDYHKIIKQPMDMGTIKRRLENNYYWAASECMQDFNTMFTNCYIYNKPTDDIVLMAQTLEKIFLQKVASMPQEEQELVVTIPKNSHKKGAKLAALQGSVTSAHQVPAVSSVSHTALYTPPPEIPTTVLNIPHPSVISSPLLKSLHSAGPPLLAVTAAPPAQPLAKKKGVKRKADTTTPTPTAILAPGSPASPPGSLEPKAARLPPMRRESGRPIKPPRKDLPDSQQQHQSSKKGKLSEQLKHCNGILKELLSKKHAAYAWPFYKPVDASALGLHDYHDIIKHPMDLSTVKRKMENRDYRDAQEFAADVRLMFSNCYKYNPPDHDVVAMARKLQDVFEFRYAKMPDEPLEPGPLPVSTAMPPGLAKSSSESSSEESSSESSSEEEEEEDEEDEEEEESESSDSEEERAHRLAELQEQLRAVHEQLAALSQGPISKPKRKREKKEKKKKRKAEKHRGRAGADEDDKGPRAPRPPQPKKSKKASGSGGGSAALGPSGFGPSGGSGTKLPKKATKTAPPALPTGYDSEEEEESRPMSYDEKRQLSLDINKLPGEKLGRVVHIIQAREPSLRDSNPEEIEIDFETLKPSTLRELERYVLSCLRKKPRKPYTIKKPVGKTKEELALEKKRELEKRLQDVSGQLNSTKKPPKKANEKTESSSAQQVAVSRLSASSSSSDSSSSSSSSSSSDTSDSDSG
T2 sequence (P40763 whole entry): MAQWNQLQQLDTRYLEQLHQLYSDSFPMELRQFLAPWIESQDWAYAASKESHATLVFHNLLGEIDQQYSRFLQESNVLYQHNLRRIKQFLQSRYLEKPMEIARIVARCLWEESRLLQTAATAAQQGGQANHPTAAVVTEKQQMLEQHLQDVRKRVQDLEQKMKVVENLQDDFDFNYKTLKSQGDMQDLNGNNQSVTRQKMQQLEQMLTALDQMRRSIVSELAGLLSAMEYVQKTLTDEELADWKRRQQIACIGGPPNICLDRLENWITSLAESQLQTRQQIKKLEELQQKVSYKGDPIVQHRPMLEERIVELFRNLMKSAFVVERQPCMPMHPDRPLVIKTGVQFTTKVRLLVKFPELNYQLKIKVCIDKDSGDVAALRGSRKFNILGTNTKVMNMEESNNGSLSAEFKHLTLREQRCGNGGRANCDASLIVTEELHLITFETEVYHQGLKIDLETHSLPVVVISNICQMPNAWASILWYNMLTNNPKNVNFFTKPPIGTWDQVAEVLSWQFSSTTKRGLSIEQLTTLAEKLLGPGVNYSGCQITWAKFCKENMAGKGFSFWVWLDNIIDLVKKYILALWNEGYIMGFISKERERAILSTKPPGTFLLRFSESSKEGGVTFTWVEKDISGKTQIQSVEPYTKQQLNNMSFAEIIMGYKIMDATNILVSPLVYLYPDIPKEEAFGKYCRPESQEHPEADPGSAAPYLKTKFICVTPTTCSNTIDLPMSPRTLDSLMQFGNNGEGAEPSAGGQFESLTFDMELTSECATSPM

With `CCC(CC)n1ccc2c(C(=O)NCc3c(C)cc(C)[nH]c3=O)cc(C#N)cc21` [EI1], the results for the IC50 on EZH2 (Y641F) and on EZH2 were 13 nM and 15 nM, respectively.

Regarding `CC(=O)N1c2ccc(-c3ccc(C(=O)O)cc3)cc2[C@H](Nc2ccc(Cl)cc2)C[C@@H]1C` [GSK1324726A (I-BET726)], the figures for the half-inhibitory concentration (IC50) at BRD2 and on BRD3 were 41 nM and 31 nM, respectively.

For the molecule `Cc1cn(CCN2CCN(c3ccccc3-c3cc(C#N)cc(C(=O)NCCCN4CCCC4)c3)CC2)c2ccccc12` [LLY-507], in data set [1], the IC50 was approximately 600 nM.

With `CCCCCCCc1ccc(CCc2cccc(O)c2C(=O)O)cc1` [MG149], at MOF, the IC50 is 47000 nM.

As to `CN(C)CCCNC(=O)c1ccc(-c2cc(O)c3ncccc3c2)cc1` [ML324], the IC50 in data set [2] was 920 nM.

On to `CN(C)CC(=O)Nc1ccc2[nH]c(=O)c3ccccc3c2c1` [PJ34], for which the EC50 in the data set on PARP was 20 nM.

Take `O=C(O)C(Cc1c[nH]c2ccccc12)N1C(=O)c2ccccc2C1=O` (stereo not shown) [RG108]: on DNA methyltransferase, the IC50 was 115 nM.

For the molecule `O=C(NCC(=O)N1CCCC1)Nc1ccc2cnccc2c1` [SGC707], the IC50 in data set [3] was less than 1000 nM.

Regarding `C[C@H](NC(=O)/C(C#N)=C/c1cccc(Br)n1)c1ccccc1` [WP1066], the values for the IC50 at JAK2 and on STAT3 were 2300 nM and 2430 nM, respectively.

For AG-490 (Tyrphostin B42), the “fold more selective for EGFR versus ErbB2” value at EGFR is on record as 135 fold.
